Measurements from ChEMBL document CHEMBL1201862, “PubChem BioAssay data set” (2004).
The source made the active and inactive calls.

How the values were obtained:
[1] = inhibitors of intracellular T. cruzi replication, confirmation, NIH3T3 host cells, beta-gal luminescence (AID 2044); format: functional, cell-based;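 note: intracellular parasites grown in NIH/3T3 mouse fibroblasts as host cells; luminescent beta-galactosidase reporter signal from transgenic T. cruzi replicating inside host cells; inhibitors lower the luminescence signal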
[2] = cytotoxicity toward NIH3T3 fibroblasts, dose response, counter-screen, cell-based, ATP luminescence, mouse fibroblasts (AID 2010); format: functional;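 note: cells exposed to compound for about 90 hours before reading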
Cytochrome P450 2C19 = Cytochrome P450 2C19 (Homo sapiens, UniProt P33261); assay: Cytochrome panel assay with activity outcomes. Panel member name: p450-cyp2c19 Compounds with AC50 equal or less than 10 uM are considered active; format: functional
Chain of Cytochrome P450 2C19 (P33261 whole entry): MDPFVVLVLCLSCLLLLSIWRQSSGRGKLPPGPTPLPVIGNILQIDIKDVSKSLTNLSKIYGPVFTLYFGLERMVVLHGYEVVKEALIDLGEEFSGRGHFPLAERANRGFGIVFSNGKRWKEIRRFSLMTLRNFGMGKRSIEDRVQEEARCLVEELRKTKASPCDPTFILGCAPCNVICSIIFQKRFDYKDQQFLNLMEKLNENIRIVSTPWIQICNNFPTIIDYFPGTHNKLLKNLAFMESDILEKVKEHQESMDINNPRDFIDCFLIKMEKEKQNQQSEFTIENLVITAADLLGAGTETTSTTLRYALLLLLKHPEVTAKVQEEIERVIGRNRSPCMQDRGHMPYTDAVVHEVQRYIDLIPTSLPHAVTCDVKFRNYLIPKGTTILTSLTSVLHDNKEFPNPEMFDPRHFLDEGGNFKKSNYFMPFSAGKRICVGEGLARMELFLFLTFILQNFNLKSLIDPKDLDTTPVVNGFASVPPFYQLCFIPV

| SMILES | EC50 [1] | EC50 [2] | AC50 (Cytochrome P450 2C19; read-out: AC50) | AC50 (Cytochrome P450 2C19) |
| --- | --- | --- | --- | --- |
| N#Cc1cc2ccccc2nc1SCC(=O)Nc1ccc(S(=O)(=O)N2CCCC2)cc1 | 2830 nM (active) | 9370 nM (active) |  |  |
| CCN1CCN(Cc2cccc(Oc3ccccc3)c2)CC1 | 1440 nM (active) | > 30000 nM (not active) |  |  |
| CCCCCNc1nc(-c2ccccc2)nc(-n2ccnc2)n1 | 1550 nM (active) | > 60000 nM (inconclusive) |  |  |
| O=C(C1=C[C@H](C2CC2)C[C@H](OCc2ccc(CO)cc2)O1)N1CCN(Cc2ccccc2)CC1 | 541 nM (active) | > 60000 nM (not active) |  |  |
| Cc1ccc(-c2nnc(Nc3ccc(CC(N)=O)cc3)c3ccccc23)cc1 | 208 nM (active) | > 60000 nM (not active) |  |  |
| COC(=O)c1c(-c2ccccc2)csc1NC(=O)CSc1ncnc2sc(C)c(C)c12 |  |  | 1000 nM (inconclusive) |  |
| CCc1ccc(C(=O)COC(=O)C(Cc2ccccc2)NC(=O)C2CCC(C)CC2)cc1 (configuration not stated) |  |  | 70.8 nM (inconclusive) |  |
| CN(C)CCCN/C=C1/C(=O)N(Cc2ccc3c(c2)OCO3)C(=O)c2ccccc21 | < 100 nM (active) | 10100 nM (active) |  |  |
| O=[N+]([O-])c1ccccc1/C=N/N1CCN(c2ccncc2S(=O)(=O)N2CCCCC2)CC1 | 550 nM (active) | > 60000 nM (not active) |  |  |
| CCOC(=O)c1cnc2ccc(OCC)cc2c1N1CCN(c2ccccc2OC)CC1 | 1190 nM (active) | > 60000 nM (not active) |  |  |
| OC(COc1ccc(OCC(O)CN2CCN(Cc3ccccc3)CC2)cc1)CN1CCN(Cc2ccccc2)CC1 (configuration not stated) | 789 nM (active) | > 60000 nM (not active) |  |  |
| O=C(Cn1ccnc1[N+](=O)[O-])NCCO [ETANIDAZOLE] |  |  |  | inconclusive |
| O=C(CN1C(=O)COc2ccccc21)N(Cc1cccnc1)Cc1ccccc1F | 260 nM (active) | > 60000 nM (not active) |  |  |
| COC(=O)Cn1nc(-c2ccccc2)n(-c2ccccc2)c1=S |  |  | 20000 nM (inconclusive) |  |
| CCN(CC)CCN(C(=O)c1ccc2c(c1)OCCO2)c1nc2ccc(C)cc2s1 | 457 nM (active) | > 60000 nM (not active) |  |  |
| COc1cccc(C(CC(=O)Nc2cccc3ccccc23)NC(=O)c2ccccc2)c1 (configuration not stated) |  |  | 631 nM (inconclusive) |  |
| CCCCOc1ccc(-c2nnn(CC(=O)c3c[nH]c4ccccc34)n2)cc1 |  |  | 25100 nM (inconclusive) |  |
| CC(=O)Nc1ccc(-c2cc(-c3ccc(NC(C)=O)cc3)nc(-c3ccccc3)n2)cc1 |  |  | 1780 nM (inconclusive) |  |
| O=C1Nc2ccccc2Oc2cc([N+](=O)[O-])ccc21 | 1460 nM (active) | 9780 nM (active) |  |  |
| Cc1[nH]n(-c2ccc(S(=O)(=O)O)cc2)c(=O)c1/N=N\c1ccccc1 |  |  |  | inconclusive |
| CN(C)CCCNC(=O)c1ccc(Cl)c(S(=O)(=O)N(C)c2ccccc2)c1 | 524 nM (active) | > 60000 nM (not active) |  |  |
| CCN(C(=O)c1cc2c(O)nc3ccc(C)cc3c2s1)c1ccccc1C | 857 nM (active) | > 60000 nM (not active) |  |  |
| O=C(c1ccc(-c2ccccc2)cc1)C1CCCN(Cc2ccncc2)C1 (configuration not stated) | 1470 nM (active) | > 60000 nM (not active) |  |  |
| COc1ccc(-c2cc(C3CCN(Cc4ccc([N+](=O)[O-])cc4)CC3)[nH]n2)cc1 | 1100 nM (active) | > 60000 nM (not active) |  |  |
| CC(C)CN(C(=O)c1ccc([N+](=O)[O-])s1)c1c(N)n(Cc2ccccc2)c(=O)[nH]c1=O | 783 nM (active) | > 60000 nM (not active) |  |  |
